Each compound was assayed against Integrin alpha-IIb/beta-3 (Homo sapiens, UniProt P05106+P08514) (assay: In vitro inhibition of biotinylated fibrinogen binding to immobilized integrin alpha IIb beta3).
Type: protein-complex assay

Integrin alpha-IIb/beta-3, sequence (P05106 27-788 limits assumed): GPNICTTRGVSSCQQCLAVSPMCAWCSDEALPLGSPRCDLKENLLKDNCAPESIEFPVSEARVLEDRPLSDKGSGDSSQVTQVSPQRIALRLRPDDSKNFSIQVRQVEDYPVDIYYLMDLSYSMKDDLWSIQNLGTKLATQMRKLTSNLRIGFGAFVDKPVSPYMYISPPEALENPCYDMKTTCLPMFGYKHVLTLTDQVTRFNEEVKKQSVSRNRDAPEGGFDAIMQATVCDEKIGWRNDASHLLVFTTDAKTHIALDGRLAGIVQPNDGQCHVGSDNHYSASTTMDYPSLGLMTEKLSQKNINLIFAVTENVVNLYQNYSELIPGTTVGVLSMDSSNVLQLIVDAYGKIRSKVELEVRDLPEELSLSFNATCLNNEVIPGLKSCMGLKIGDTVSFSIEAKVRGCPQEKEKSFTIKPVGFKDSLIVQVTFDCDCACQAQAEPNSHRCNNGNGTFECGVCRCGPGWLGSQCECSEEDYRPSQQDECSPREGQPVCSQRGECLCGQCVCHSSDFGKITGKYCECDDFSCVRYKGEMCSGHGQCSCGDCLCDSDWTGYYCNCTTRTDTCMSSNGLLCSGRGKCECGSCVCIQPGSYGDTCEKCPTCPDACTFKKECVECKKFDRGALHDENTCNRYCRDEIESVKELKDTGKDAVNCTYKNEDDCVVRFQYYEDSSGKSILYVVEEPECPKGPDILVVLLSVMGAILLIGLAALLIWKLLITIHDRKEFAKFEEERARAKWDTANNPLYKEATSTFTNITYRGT
Integrin alpha-IIb/beta-3, sequence (P08514 32-887 limits assumed): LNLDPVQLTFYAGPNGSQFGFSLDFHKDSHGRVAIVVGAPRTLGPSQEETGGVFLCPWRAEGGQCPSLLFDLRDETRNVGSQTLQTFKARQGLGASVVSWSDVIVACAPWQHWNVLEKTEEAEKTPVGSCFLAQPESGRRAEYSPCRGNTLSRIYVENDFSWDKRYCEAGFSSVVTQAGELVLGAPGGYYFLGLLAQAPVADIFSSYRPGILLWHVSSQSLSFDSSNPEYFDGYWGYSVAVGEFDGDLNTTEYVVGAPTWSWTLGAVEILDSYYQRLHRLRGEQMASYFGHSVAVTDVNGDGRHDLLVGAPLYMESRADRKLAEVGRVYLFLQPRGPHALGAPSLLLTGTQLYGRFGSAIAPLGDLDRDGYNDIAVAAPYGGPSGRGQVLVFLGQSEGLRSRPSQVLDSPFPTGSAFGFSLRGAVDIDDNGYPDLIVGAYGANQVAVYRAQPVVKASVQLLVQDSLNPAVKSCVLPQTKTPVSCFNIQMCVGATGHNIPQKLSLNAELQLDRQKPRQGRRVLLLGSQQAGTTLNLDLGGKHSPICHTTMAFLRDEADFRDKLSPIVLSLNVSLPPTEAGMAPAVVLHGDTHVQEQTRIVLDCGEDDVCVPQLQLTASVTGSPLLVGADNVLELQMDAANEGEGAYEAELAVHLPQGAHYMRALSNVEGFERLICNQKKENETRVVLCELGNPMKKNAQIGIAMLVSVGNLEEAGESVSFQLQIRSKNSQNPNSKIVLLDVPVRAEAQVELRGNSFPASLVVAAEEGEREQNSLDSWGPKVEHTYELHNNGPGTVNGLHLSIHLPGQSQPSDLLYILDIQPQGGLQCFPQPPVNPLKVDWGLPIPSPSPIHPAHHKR
Integrin alpha-IIb/beta-3, sequence (P08514 891-1039 limits assumed): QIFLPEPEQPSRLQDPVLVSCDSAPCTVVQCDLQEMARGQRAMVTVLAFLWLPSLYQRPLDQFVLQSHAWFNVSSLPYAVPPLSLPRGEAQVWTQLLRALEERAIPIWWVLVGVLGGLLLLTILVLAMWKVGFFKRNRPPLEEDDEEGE

| IC50 | SMILES |
| --- | --- |
| 6 nM | O=C(O)CCNC(=O)C1CCCN(C(=O)CCC2CCNCC2)C1 (centres undefined) |
| > 100 nM | O=C(O)CCNC(=O)C1CCN(C(=O)CCC2CCNCC2)CC1 |
| 3 nM | O=C(O)C[C@@H](C#Cc1ccccc1)NC(=O)[C@@H]1CCCN(C(=O)CCC2CCNCC2)C1 |
| 3 nM | COC(=O)C(CC(=O)O)NC(=O)C1CCCN(C(=O)CCC2CCNCC2)C1 (centres undefined) |
| > 50000 nM | O=C(O)C1CCCC(NC(=O)C2CCCN(C(=O)CCC3CCNCC3)C2)C1 (centres undefined) |
| 200 nM | O=C(NCCS(=O)(=O)O)C1CCCN(C(=O)CCC2CCNCC2)C1 (centres undefined) |
| 3 nM | CC(CC(=O)O)NC(=O)C1CCCN(C(=O)CCC2CCNCC2)C1 (centres undefined) |
| 9 nM | O=C(O)C1CN(C(=O)C2CCCN(C(=O)CCC3CCNCC3)C2)CCC1=O (centres undefined) |
| 21 nM | CC(C)(C)C#C[C@H](CC(=O)O)NC(=O)[C@@H]1CCCN(C(=O)CCC2CCNCC2)C1 |
| 10 nM | O=C(O)CCNC(=O)C1CCCCN(C(=O)CCC2CCNCC2)C1 (centres undefined) |
| 20 nM | O=C(O)CCNC(=O)C1CCCN(C(=O)NCC2CCNCC2)C1 (centres undefined) |
| 5 nM | O=C(O)C(O)CNC(=O)C1CCCN(C(=O)CCC2CCNCC2)C1 (centres undefined) |
| 20 nM | O=C(O)CCNC(=O)C1CCCN(C(=O)OCC2CCNCC2)C1 (centres undefined) |
| 2 nM | O=C(O)CCNC(=O)C1CCCN(C(=O)CCN2CCNCC2)C1 (centres undefined) |
| 20 nM | O=C(O)CCNC(=O)C1CCCN(S(=O)(=O)CCC2CCNCC2)C1 (centres undefined) |
| 0.1 nM | O=C(O)C[C@H](NC(=O)[C@@H]1CCCN(C(=O)CCC2CCNCC2)C1)c1cccs1 |
| 200 nM | CN(CCC(=O)O)C(=O)C1CCCN(C(=O)CCC2CCNCC2)C1 (centres undefined) |
| > 100 nM | CC(CNC(=O)C1CCCN(C(=O)CCC2CCNCC2)C1)C(=O)O (centres undefined) |
| 2 nM | CC(C)CC(CC(=O)O)NC(=O)C1CCCN(C(=O)CCC2CCNCC2)C1 (centres undefined) |
| 4 nM | O=C(O)CCNC(=O)[C@H]1CCCN(C(=O)CCC2CCNCC2)C1 |
| 0.1 nM | O=C(O)C[C@H](NC(=O)[C@@H]1CCCN(C(=O)CCC2CCNCC2)C1)c1cnc2ccccc2c1 |
| 6 nM | O=C(O)CCNC(=O)[C@@H]1CCCN(C(=O)CCC2CCNCC2)C1 |
| 600 nM | O=C(NCCc1nnn[nH]1)C1CCCN(C(=O)CCC2CCNCC2)C1 (centres undefined) |
| 7 nM | O=C(O)CCNC(=O)C1CCN(C(=O)CCC2CCNCC2)C1 (centres undefined) |

Reference: ChEMBL document CHEMBL1129190, “Solid-phase parallel synthesis applied to lead optimization: Discovery of potent analogues of the GPIIb/IIIa antagonist RWJ-50042” (Bioorg Med Chem Lett, 1996)
